Laboratory results taken from US9155714B2, “Compositions comprising an aromatic alcohol and a TRPV-1 antagonist, and uses thereof” (JOHNSON & JOHNSON CONSUMER INC., priority 2013, dated 2015).
“And” between values parts separate entries of the source, which are not always exact repeats. Equal values may be shown once.

Columns and labels:
Format in all cases: cell-based
[1] = biological target: T1, human vanilloid receptor-1 (TRPV-1) (Homo sapiens, UniProt Q8NER1); test: Calcium Flux Test, inhibition of phenoxyethanol-induced calcium flux; conditions: for reducing phenoxyethanol-induced calcium flux (result in words): TRPV-1-expressing HEK293 cells
T1 construct: host or cells: HEK293
Description: (§1) The Calcium Flux Test is performed in the following manner: Recombinant HEK293 cells expressing human vanilloid receptor-1 (TRPV-1; accession number AF196175, EMD Millipore, Billerica, Mass.) are grown in D-MEM/F-12 media (Life Technologies, Grand Island, N.Y.) supplemented with 10% fetal bovine serum, 1% non essential amino acids and 400 μg/mL Geneticin (Gibco, Life Technologies). Cells are plated at a concentration of 15,000 cells per well on poly-D-lysine-coated 384 well plates and incubated overnight at 5% CO2 and 37° C. After incubation, culture media is removed from the wells and replaced with 50 μL per well of Fluo-8 No Wash dye solution (#36315, AAT Bioquest, Sunnyvale, Calif.). The Fluo-8 dye solution is prepared by mixing 20 uL of Fluo-8 NW with 30 mL of 0.33× Pluronic® F127 Plus (BASF of Ludwigshafen, Germany) in assay buffer (1×HBSS+2% of HEPES). Fluo-8 dye is incubated for 30 minutes at room temperature. Intracellular calcium (Ca^2+) flux is monitored upon exposure to aromatic alcohol in DMSO vehicle by measuring fluorescence intensity at Ex/Em 490/525 on a Functional Drug Screening System (FDSS; Hamamatsu, […]). Measurements are taken every second for a period of 4 minutes. […] Statistical differences are obtained using One Way ANOVA with Tukey Post-hoc test; statistical significance is defined as P≦0.05.
(§2) The Maximum RFU obtained with a given concentration of aromatic alcohol is compared with the Maximum RFU obtained using the same concentration of aromatic alcohol but pretreated with the TRPV-1 antagonist for 5 minutes after dye incubation. Percent inhibition achieved with the TRPV-1 antagonist is calculated as: 100*((Maximum RFU of aromatic alcohol−Maximum RFU of aromatic alcohol pretreated with TRPV-1 antagonist)/Maximum RFU of aromatic alcohol).
(§3) Capsazepine and AMG9810 were tested for activity as TRPV-1 antagonists using the Calcium Flux Test using two different concentrations of phenoxyethanol in DMSO. They were also tested using the Calcium Flux Test in which phenoxyethanol was replaced with capsaicin. […]

[2] = biological target: T1, human vanilloid receptor-1 (TRPV-1); test: Calcium Flux Test, phenoxyethanol replaced with capsaicin (capsaicin-induced calcium flux)
Description: as §1, §2, §3

[3] = biological target: T1, human vanilloid receptor-1 (TRPV-1); test: Calcium Flux Test, activity as TRPV-1 agonist
Description: as §1
Phenoxyethanol was tested at a series of concentrations in DMSO for activity as a TRPV-1 agonist according to the Calcium Flux Test described above. Capsaicin was used as a positive control.
Maximum RFU values for treatment with phenoxyethanol or capsaisin were compared to the Maximum RFU for a DMSO vehicle alone. Concentrations of phenoxyethanol and capsaicin are reported in milimolar (mM) and nanomolar (nM), respectively.
Benzyl alcohol and sodium bicarbonate were tested using the Calcium Flux Test.
Benzyl alcohol and phenethyl alcohol were tested at a series of concentrations in DMSO for activity as a TRPV-1 agonist as described in Example 1. Concentrations of benzyl alcohol and phenethyl alcohol are reported in units of % w/v.

[4] = compound 25 μM, phenoxyethanol 2 mM
[5] = compound 25 μM, phenoxyethanol 3 mM
[6] = compound 100 μM, phenoxyethanol 2 mM
[7] = compound 100 μM, phenoxyethanol 3 mM
[8] = AMG9810 0.6104 nM, phenoxyethanol 2 mM
[9] = AMG9810 2 nM, phenoxyethanol 2 mM
[10] = AMG9810 10 nM, phenoxyethanol 2 mM
[11] = AMG9810 39 nM, phenoxyethanol 2 mM
[12] = AMG9810 39 nM, phenoxyethanol 3 mM
[13] = AMG9810 156 nM, phenoxyethanol 2 mM
[14] = AMG9810 156 nM, phenoxyethanol 3 mM
[15] = AMG9810 625 nM, phenoxyethanol 2 mM
[16] = AMG9810 625 nM, phenoxyethanol 3 mM
[17] = AMG9810 2500 nM, phenoxyethanol 2 mM
[18] = AMG9810 2500 nM, phenoxyethanol 3 mM
[19] = AMG9810 10000 nM, phenoxyethanol 2 mM
[20] = AMG9810 10000 nM, phenoxyethanol 3 mM
[21] = AMG9810 625 nM, capsaicin 100 nM
[22] = AMG9810 625 nM, capsaicin 300 nM
[23] = AMG9810 2500 nM, capsaicin 100 nM
[24] = AMG9810 2500 nM, capsaicin 300 nM
[25] = AMG9810 10000 nM, capsaicin 100 nM
[26] = AMG9810 10000 nM, capsaicin 300 nM

T1 sequence (Q8NER1 whole entry): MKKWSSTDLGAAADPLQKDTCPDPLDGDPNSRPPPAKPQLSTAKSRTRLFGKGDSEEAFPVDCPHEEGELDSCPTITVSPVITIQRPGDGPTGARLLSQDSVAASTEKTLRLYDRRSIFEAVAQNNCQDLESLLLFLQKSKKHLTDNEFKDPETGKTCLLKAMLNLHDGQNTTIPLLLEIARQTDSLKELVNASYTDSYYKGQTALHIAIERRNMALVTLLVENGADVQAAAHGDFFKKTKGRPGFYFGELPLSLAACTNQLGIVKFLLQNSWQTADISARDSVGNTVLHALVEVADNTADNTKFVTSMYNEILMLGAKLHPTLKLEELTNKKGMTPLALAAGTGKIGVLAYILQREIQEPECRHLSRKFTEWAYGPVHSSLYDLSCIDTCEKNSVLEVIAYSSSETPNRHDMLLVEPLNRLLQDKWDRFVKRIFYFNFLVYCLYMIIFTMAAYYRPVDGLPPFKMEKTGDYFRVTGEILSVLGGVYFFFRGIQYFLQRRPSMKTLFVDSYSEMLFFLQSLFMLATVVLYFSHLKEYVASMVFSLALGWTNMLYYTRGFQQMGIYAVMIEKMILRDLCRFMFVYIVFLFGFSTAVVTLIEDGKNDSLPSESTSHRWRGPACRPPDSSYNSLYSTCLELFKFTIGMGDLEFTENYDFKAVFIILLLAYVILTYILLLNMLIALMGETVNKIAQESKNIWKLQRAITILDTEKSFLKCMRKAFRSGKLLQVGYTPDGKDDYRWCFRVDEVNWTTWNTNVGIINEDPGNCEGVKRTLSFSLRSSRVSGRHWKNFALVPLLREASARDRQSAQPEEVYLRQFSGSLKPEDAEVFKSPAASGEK

SMILES: CN(C)CCOC(c1ccccc1)c1ccccc1 [Diphenhydramine, diphenhydramine]
- reducing phenoxyethanol-induced calcium flux (result in words) [1]: none of hydrocortisone, diphenhydramine or lidocaine were effective
- Maximum RFU (mean ± SD) [1, 4]: 158.25 ± 0.69 RFU
- Maximum RFU (mean ± SD) [1, 5]: 312.62 ± 67.77 RFU
- Maximum RFU (mean ± SD) [1, 6]: 141.61 ± 33.91 RFU
- Maximum RFU (mean ± SD) [1, 7]: 195.47 ± 53.34 RFU
- Maximum RFU (mean ± SD) ([2]; compound 100 μM, capsaicin 300 nM): 825.37 ± 9.95 RFU

SMILES: CC(C)(C)c1ccc(/C=C/C(=O)Nc2ccc3c(c2)OCCO3)cc1 [AMG9810, (E)-3-(4-t-butylphenyl)-N-(2,3-dihydrobenzo[b][1,4]dioxin-6-yl)acrylamide]
- Maximum RFU (mean ± SD) ([1]; AMG9810 0.1526 nM, phenoxyethanol 2 mM): 261.54 ± 114.76 RFU
- Maximum RFU (mean ± SD) ([1]; AMG9810 0.1526 nM, phenoxyethanol 3 mM): 412.30 ± 110.68 RFU
- Maximum RFU (mean ± SD) [1, 8]: 189.72 ± 34.94 RFU
- inhibition at 0.0006104 µM [1, 8]: 12.3%
- Maximum RFU (mean ± SD) ([1]; AMG9810 0.6104 nM, phenoxyethanol 3 mM): 405.29 ± 152.93 RFU
- Maximum RFU (mean ± SD) [1, 9]: 202.96 ± 18.01 RFU
- inhibition at 0.002 µM [1, 9]: 6.2%
- Maximum RFU (mean ± SD) ([1]; AMG9810 2 nM, phenoxyethanol 3 mM): 265.02 ± 52.11 RFU
- Maximum RFU (mean ± SD) [1, 10]: 110.26 ± 27.80 RFU
- inhibition at 0.01 µM [1, 10]: 49%
- Maximum RFU (mean ± SD) ([1]; AMG9810 10 nM, phenoxyethanol 3 mM): 315.60 ± 125.77 RFU
- Maximum RFU (mean ± SD) [1, 11]: 165.37 ± 162.35 RFU
- inhibition at 0.039 µM [1, 11]: 23.6%
- Maximum RFU (mean ± SD) [1, 12]: 98.74 ± 23.34 RFU
- inhibition at 0.039 µM [1, 12]: 56%
- Maximum RFU (mean ± SD) [1, 13]: 58.21 ± 5.97 RFU
- inhibition at 0.156 µM [1, 13]: 73.1%
- Maximum RFU (mean ± SD) [1, 14]: 75.59 ± 10.97 RFU
- inhibition at 0.156 µM [1, 14]: 66.3%
- Maximum RFU (mean ± SD) [1, 15]: 55.53 ± 8.48 RFU
- inhibition at 0.625 µM [1, 15]: 74.3%
- Maximum RFU (mean ± SD) [1, 16]: 58.16 ± 1.97 RFU
- inhibition at 0.625 µM [1, 16]: 74.1%
- Maximum RFU (mean ± SD) [1, 17]: 58.00 ± 5.34 RFU
- inhibition at 2.5 µM [1, 17]: 73.2%
- Maximum RFU (mean ± SD) [1, 18]: 68.59 ± 4.15 RFU
- inhibition at 2.5 µM [1, 18]: 69.4%
- Maximum RFU (mean ± SD) [1, 19]: 59.78 ± 3.84 RFU
- inhibition at 10 µM [1, 19]: 72.4%
- Maximum RFU (mean ± SD) [1, 20]: 65.74 ± 4.33 RFU
- inhibition at 10 µM [1, 20]: 70.7%
- Maximum RFU (mean ± SD) ([2]; AMG9810 39 nM, capsaicin 100 nM): 942.69 ± 88.43 RFU
- Maximum RFU (mean ± SD) ([2]; AMG9810 39 nM, capsaicin 300 nM): 975.35 ± 32.01 RFU
- Maximum RFU (mean ± SD) ([2]; AMG9810 156 nM, capsaicin 100 nM): 916.79 ± 31.53 RFU
- Maximum RFU (mean ± SD) ([2]; AMG9810 156 nM, capsaicin 300 nM): 958.56 ± 16.66 RFU
- Maximum RFU (mean ± SD) [2, 21]: 735.36 ± 114.75 RFU
- inhibition at 0.625 µM [2, 21]: 13.4%
- Maximum RFU (mean ± SD) [2, 22]: 747.36 ± 77.35 RFU
- inhibition at 0.625 µM [2, 22]: 14.6%
- Maximum RFU (mean ± SD) [2, 23]: 85.41 ± 20.60 RFU
- inhibition at 2.5 µM [2, 23]: 90%
- Maximum RFU (mean ± SD) [2, 24]: 78.33 ± 46.56 RFU
- inhibition at 2.5 µM [2, 24]: 91%
- Maximum RFU (mean ± SD) [2, 25]: 47.00 ± 11.29 RFU
- inhibition at 10 µM [2, 25]: 94.5%
- Maximum RFU (mean ± SD) [2, 26]: 44.15 ± 2.20 RFU
- inhibition at 10 µM [2, 26]: 95%

SMILES: CCN(CC)CC(=O)Nc1c(C)cccc1C [Lidocaine, lidocaine]
- reducing phenoxyethanol-induced calcium flux (result in words) [1]: none of hydrocortisone, diphenhydramine or lidocaine were effective
- Maximum RFU (mean ± SD) [1, 4]: 124.96 ± 22.24 RFU
- Maximum RFU (mean ± SD) [1, 5]: 197.45 ± 41.14 RFU
- Maximum RFU (mean ± SD) [1, 6]: 116.25 ± 25.92 RFU
- Maximum RFU (mean ± SD) [1, 7]: 205.92 ± 16.97 RFU

SMILES: OCCc1ccccc1 [Phenethyl Alcohol, phenethyl alcohol]
- intracellular calcium flux in TRPV-1-transfected HEK cells (result in words) [3]: dose dependent increases
- Maximum RFU ([3]; phenethyl alcohol 0.000002 % w/v alone (no antagonist)): 12.8 ± 1.35 RFU and 6.43 RFU and 12.28 ± 3.52 RFU
- Maximum RFU ([3]; phenethyl alcohol 0.013 % w/v alone (no antagonist)): 185.92 ± 28.6 RFU and 123.10 RFU and 200.02 ± 6.15 RFU
- Maximum RFU ([3]; phenethyl alcohol 0.04 % w/v alone (no antagonist)): 548.5 ± 37.22 RFU and 441.18 RFU and 470.23 ± 7.11 RFU
- Maximum RFU ([3]; phenethyl alcohol 0.12 % w/v alone (no antagonist)): 755.2 ± 12.89 RFU and 605.31 RFU and 580.44 ± 3.06 RFU
